Results as given in article PMC11157491, “Novel Alaninamide Derivatives with Drug-like Potential for Development as Antiseizure and Antinociceptive Therapies—In Vitro and In Vivo Characterization” (ACS Chemical Neuroscience, 2024).

Key:
[1] = system: fast voltage-gated sodium channels in rat prefrontal cortex pyramidal neurons; experiment: Patch-clamp recording of fast sodium currents; assay type: cell-based; conditions: control = 1.0
Description: Due to the relatively high concentration of compounds used in the in vitro assays, as well as brain concentration of 28 (>10 μM after 25 mg/kg dose administration) determined in the pharmacokinetic studies (see Section 2.10), it seems unlikely that compounds described herein act by any of mechanisms tested in the aforementioned binding and functional studies. […] Thus, in further in vitro assays, 28 was also evaluated for its influence on fast voltage-gated sodium channels in rat prefrontal cortex pyramidal neurons using the patch-clamp technique (maximal currents were evoked by rectangular voltage steps to −10 mV).
The averaged, maximal normalized amplitudes of voltage-gated sodium currents were 1.0 in control, 0.72 ± 0.06 after application of 28, and 0.86 ± 0.05 after wash-out (control vs 28p < 0.05).
Patch-clamp studies in prefrontal cortex pyramidal neurons. The methodology of slice preparation, preparation of dispersed cortical neurons, and sodium current recording technique were the same as in our previous study.[75]

mice [2] = experiment: Streptozotocin (STZ)-induced peripheral neuropathy, von Frey test; assay type: in vivo; conditions: 21 days after STZ
Description: In the first group, the initial value of 6.08 ± 0.29 (baseline) decreased to the value of 4.30 ± 0.21 (70.7% of the baseline). […] In the second group, the initial value of 6.08 ± 0.29 (baseline) decreased to the value of 5.02 ± 0.27 (82.6% of the baseline). The administration of 28 at a dose of 25 mg/kg elevated the pain threshold to the value of 7.69 ± 0.41, which corresponds with 126.5% of the baseline. In the third group, the baseline was decreased to the value of 5.35 ± 0.27 (88.0% of the baseline). The effect was not statistically significant. The administration of 28 at a dose of 50 mg/kg elevated the pain threshold to a value as high as 8.70 ± 0.41, which corresponds with 143.1% of the baseline.
The experimental groups consisted of 10 adult male Albino Swiss mice (CD-1, 18–25 g). Each animal was tested only once. Immediately after the assay, the animals were sacrificed by cervical dislocation. Behavioral measurements were observed by trained observers. The in vivo antinociceptive assays were in accordance with Polish regulations and the European Union Directive of 22 Sept 2010 (2010/63/EU). All procedures were carried out according to the rules of the International Council on Laboratory Animal Science (ICLAS) and were approved by the Local Ethics Committee in Cracow, Poland (104/2015, 279/2019, and 614/2022). The tested substances were suspended in a 1% aqueous solution of Tween 80 and were injected i.p. 30 min prior to the test. Control group animals (negative control) were administered with an appropriate amount of vehicle (Tween 80, 1% aqueous solution, i.p.) 30 min prior to the test. […] Before formalin application, different groups of animals were injected i.p. with vehicle (10 mL/kg, negative control). The in vivo procedure for the model of capsaicin-induced nociception was previously reported;[67] the animals were pretreated with vehicle (10 mL/kg, negative control), and the dose–response of investigated compounds was evaluated at 12.5, 25, and 50 mg/kg.
Data are presented as means ± standard error of the mean (SEM). GraphPad Prism Software (v.5) was used to analyze the vast majority of data. Statistically significant differences between groups were calculated using one-way analysis of variance (ANOVA) and the post hoc Dunnett’s multiple comparison test or two-way analysis of variance (ANOVA). The criterion for significance was set at p < 0.05. The log-probit method was applied to statistically determine the ED50 values with 95% confidence limits.

NMDA = NMDA binding (antagonist radioligand); conditions: 100 μM, rat cerebral cortex
Description: (§1) Binding/functional studies were carried out commercially in Eurofins Laboratories (Poitiers, France) and Eurofins Panlabs Discovery Services Taiwan, Ltd. (New Taipei City, Taiwan) using testing procedures that were reported previously (for details, see Table S2).
Table S2. Radioligand binding and functional assays.
NMDA (antagonist radioligand) […]
(§2) Potassium channel (hERG) […]
(§3) Assays were performed commercially in Eurofins Laboratories ( Poitiers, France) or Eurofins Panlabs Discovery Services
(§4) Taiwan, Ltd. (New Taipei City, Taiwan).

mice [3] = experiment: PTZ-induced kindling; assay type: in vivo; conditions: for percentage of fully kindled mice: PTZ 40 mg/kg; for mean seizure severity score: 40 mg/kg
Description: The percentage of fully kindled mice in the control group was 77%. […] These slight differences were not statistically significant as compared to the PTZ control group.
Data are shown as means of seizure severity ± SEM (n = 13–15 animals). The statistical significance was evaluated by a mixed-effect model for repeated measures followed by Tukey’s post hoc test: *p < 0.05, **p < 0.01, ***p < 0.001, and ****p < 0.0001 as compared to the control group (GraphPad Prism 8).
The procedure was performed as described in detail in our earlier studies.[15],[65] […] The seizure severity was scored using the modified Racine’s scale. […] 24 h after the last PTZ injection, animals were subjected to the locomotor activity test, the elevated plus maze test, and the forced swim test according to the methods described in detail elsewhere. After behavioral tests, animals were sacrificed and the brains were rapidly removed. Hippocampi and cortices were dissected, frozen, and stored at −80 °C until the assay of determination of GABA and glutamate concentration.
The mean seizure severity scores were calculated for all experimental groups after each PTZ injection and analyzed using a mixed-effect model for repeated measures with Tukey’s post hoc test. Fisher’s exact probability test was used to compare the percentage of fully kindled mice.

hERG potassium channel = target: T1, hERG potassium channel (Homo sapiens, UniProt Q12809); experiment: hERG potassium channel binding; conditions: HEK-293 cells expressing human recombinant hERG, human recombinant HEK-293 cell, read-out: % inhibition of control specific binding
T1 construct: Eurofins (contract assay)
T1 sequence (Q12809 whole entry): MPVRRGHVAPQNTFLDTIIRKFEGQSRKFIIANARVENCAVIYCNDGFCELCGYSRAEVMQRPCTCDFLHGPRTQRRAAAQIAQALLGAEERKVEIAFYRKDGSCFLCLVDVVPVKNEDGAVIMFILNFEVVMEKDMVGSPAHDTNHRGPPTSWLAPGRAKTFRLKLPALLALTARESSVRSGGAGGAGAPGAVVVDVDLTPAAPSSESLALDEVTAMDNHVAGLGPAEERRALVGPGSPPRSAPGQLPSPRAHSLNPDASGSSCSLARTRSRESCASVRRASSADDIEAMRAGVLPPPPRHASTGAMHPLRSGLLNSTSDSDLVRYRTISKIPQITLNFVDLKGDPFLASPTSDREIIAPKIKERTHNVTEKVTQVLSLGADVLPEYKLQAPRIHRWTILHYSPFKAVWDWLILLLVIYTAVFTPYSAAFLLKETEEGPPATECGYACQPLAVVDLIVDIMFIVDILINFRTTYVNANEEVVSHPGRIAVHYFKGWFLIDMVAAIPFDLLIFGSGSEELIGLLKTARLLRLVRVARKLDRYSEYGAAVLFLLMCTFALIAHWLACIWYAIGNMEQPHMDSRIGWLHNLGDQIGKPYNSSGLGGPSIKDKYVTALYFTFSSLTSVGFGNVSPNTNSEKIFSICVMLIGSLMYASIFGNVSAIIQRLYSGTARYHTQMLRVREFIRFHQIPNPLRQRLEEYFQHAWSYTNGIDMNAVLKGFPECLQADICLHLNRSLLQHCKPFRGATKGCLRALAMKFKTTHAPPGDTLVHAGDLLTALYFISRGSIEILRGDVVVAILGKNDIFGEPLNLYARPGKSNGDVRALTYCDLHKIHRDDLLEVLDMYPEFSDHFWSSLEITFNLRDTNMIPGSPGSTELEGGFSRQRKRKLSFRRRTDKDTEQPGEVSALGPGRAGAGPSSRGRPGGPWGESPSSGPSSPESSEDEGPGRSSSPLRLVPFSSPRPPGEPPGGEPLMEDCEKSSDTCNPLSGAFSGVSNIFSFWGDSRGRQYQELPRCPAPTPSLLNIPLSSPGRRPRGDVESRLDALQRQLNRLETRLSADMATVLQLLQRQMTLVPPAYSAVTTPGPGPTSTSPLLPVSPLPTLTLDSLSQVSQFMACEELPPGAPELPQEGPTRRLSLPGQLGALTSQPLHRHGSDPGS
Description: Moreover, we also evaluated its influence on the potassium channel (hERG), which is known to be one of the most critical “off-targets” responsible for the harmful proarrhythmic activity of drugs and drug candidates.[56] […] The latter result is particularly important, since it minimizes the risk of potential proarrhythmic activity of 28. Despite this positive result, more detailed off-target profiling is undoubtedly necessary in the next steps of preclinical development.
as §1
Table S2. Radioligand binding and functional assays. […]
as §2, §3, §4

% inhibition of control specific binding (NMDA): 5.0%
Structure (SMILES): CC(=O)NC(C)C(=O)N1CCN(c2cccc(OC(F)(F)F)c2)CC1 (centres unmarked) [Compound 28, N-(1-oxo-1-(4-(3-(Trifluoromethoxy)phenyl)piperazin-1-yl)propan-2-yl)acetamide]
averaged maximal normalized amplitude of voltage-gated sodium currents ([1]; 10 μM, after application): 0.72 ± 0.06
averaged maximal normalized amplitude of voltage-gated sodium currents ([1]; after wash-out): 0.86 ± 0.05
pain threshold after compound, % of the baseline (mice [2]; 12.5 mg/kg): 100.0%
pain threshold (von Frey) after compound (mice [2]; 25 mg/kg): 7.69 ± 0.41
pain threshold after compound, % of the baseline (mice [2]; 25 mg/kg): 126.5%
pain threshold (von Frey) after compound (mice [2]; 50 mg/kg): 8.70 ± 0.41
pain threshold after compound, % of the baseline (mice [2]; 50 mg/kg): 143.1%
percentage of fully kindled mice (mice [3]; 10 mg/kg i.p. every 24 h): 71%
percentage of fully kindled mice (mice [3]; 20 mg/kg i.p. every 24 h): 73%
percentage of fully kindled mice (mice [3]; 40 mg/kg i.p. every 24 h): 47%
mean seizure severity score (mice [3]; after the first PTZ injection): 1.00 ± 0.00
mean seizure severity score (mice [3]; after the last PTZ injection): 3.40 ± 0.45
inhibition at 100 µM (hERG potassium channel): 12.9%
